In ChEMBL document CHEMBL1201862, “PubChem BioAssay data set” (2004):
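Exposure lasted 48 hours, with cells grown in 96-well plates and compounds tested at five concentrations. Abbreviation: GI50, concentration required for 50% inhibition of growth.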 The source made the active and inactive calls. No stated cut-off is given here; in the data, active = GI50 up to about 1.1 µM and inactive = higher.

Key:
Experiment in all cases: NCI anticancer screen, dose series, 48 h
[1] = system: OVCAR-4
[2] = system: HCC 2998
[3] = system: CAKI-1
[4] = system: SW-620
[5] = system: T47D
[6] = system: MDA-N
[7] = system: PC-3
[8] = system: SF-268
[9] = system: EKVX
[10] = system: A549
[11] = system: HCT-15
[12] = system: OVCAR-8
[13] = system: A498
[14] = system: KM12
[15] = system: RXF 393
[16] = system: SN12C
[17] = system: NCI-H460
[18] = system: SF-539
[19] = system: MDA-MB-231
[20] = system: SNB-19
[21] = system: MCF7
[22] = system: TK-10
[23] = system: IGROV-1
[24] = system: UACC-257
[25] = system: OVCAR-5
[26] = system: NCI-H522
[27] = system: BT-549
[28] = system: SK-OV-3
[29] = system: CCRF-CEM
[30] = system: NCI-H23
[31] = system: RPMI-8226
[32] = system: U-251
[33] = system: Malme-3M
[34] = system: COLO 205
[35] = system: UACC-62
[36] = system: SK-MEL-2
[37] = system: SK-MEL-28
[38] = system: LOX IMVI
[39] = system: SF-295
[40] = system: HT-29
[41] = system: OVCAR-3
[42] = system: MDA-MB-435
[43] = system: NCI-H226
[44] = system: 786-0
[45] = system: ACHN
[46] = system: K562
[47] = system: DU-145
[48] = system: M14
[49] = system: HCT-116
[50] = system: UO-31
[51] = system: SK-MEL-5
[52] = system: NCI/ADR-RES
[53] = system: HOP-62
[54] = system: HOP-92
[55] = system: MOLT-4
[56] = system: SNB-75
[57] = system: SR
[58] = system: HL-60

## CCOc1cc(-c2nc3cc(F)ccc3s2)ccc1O
[1]
  GI50: 26.2 µM (inactive)
[2]
  GI50: 26 µM (inactive)
[3]
  GI50: 16.9 µM (inactive)
[4]
  GI50: 19.4 µM (inactive)
[5]
  GI50: 11.6 µM (inactive)
[6]
  GI50: 15.8 µM (inactive)
[7]
  GI50: 14.5 µM (inactive)
[8]
  GI50: 15.7 µM (inactive)
[9]
  GI50: 10.8 µM (inactive)
[10]
  GI50: 17.9 µM (inactive)
[11]
  GI50: 14.9 µM
[12]
  GI50: 15.8 µM (inactive)
[13]
  GI50: 12.6 µM (inactive)
[14]
  GI50: 17 µM (inactive)
[15]
  GI50: 18.6 µM (inactive)
[16]
  GI50: 19.1 µM (inactive)
[17]
  GI50: 17.3 µM (inactive)
[18]
  GI50: 18.8 µM (inactive)
[19]
  GI50: 21.8 µM (inactive)
[20]
  GI50: 16.5 µM (inactive)
[21]
  GI50: 5.64 µM (inactive)
[22]
  GI50: 18.7 µM (inactive)
[23]
  GI50: 12.5 µM (inactive)
[24]
  GI50: 16.8 µM (inactive)
[25]
  GI50: 18.7 µM (inactive)
[26]
  GI50: 11.5 µM (inactive)
[27]
  GI50: 16.1 µM (inactive)
[28]
  GI50: 18.7 µM (inactive)
[29]
  GI50: 0.6 µM (active)
[30]
  GI50: 18 µM (inactive)
[31]
  GI50: 10.7 µM (inactive)
[32]
  GI50: 19.5 µM (inactive)
[33]
  GI50: 15.3 µM (inactive)
[34]
  GI50: 19.7 µM (inactive)
[35]
  GI50: 16.6 µM (inactive)
[36]
  GI50: 17.2 µM (inactive)
[37]
  GI50: 27.6 µM (inactive)
[38]
  GI50: 16 µM (inactive)
[39]
  GI50: 20 µM (inactive)
[40]
  GI50: 18.1 µM (inactive)
[41]
  GI50: 18.5 µM (inactive)
[42]
  GI50: 18.2 µM (inactive)
[43]
  GI50: 17 µM (inactive)
[44]
  GI50: 14.4 µM (inactive)
[45]
  GI50: 16 µM (inactive)
[46]
  GI50: < 0.01 µM (active)
[47]
  GI50: 17.6 µM (inactive)
[48]
  GI50: 17.2 µM (inactive)
[49]
  GI50: 20.6 µM (inactive)
[50]
  GI50: 12.9 µM (inactive)
[51]
  GI50: 16.6 µM (inactive)
[52]
  GI50: 23 µM (inactive)

## CCOC(=O)CCC(NC(=O)c1ccc(NCc2ccc3nc(-c4ccccc4)c(Cl)nc3c2)c2ccccc12)C(=O)OCC (centres undefined)
[1]
  GI50: > 100 µM (inactive)
[2]
  GI50: > 100 µM (inactive)
[3]
  GI50: > 100 µM (inactive)
[4]
  GI50: > 100 µM (inactive)
[5]
  GI50: 13.9 µM (inactive)
[6]
  GI50: > 100 µM (inactive)
[7]
  GI50: > 100 µM (inactive)
[8]
  GI50: > 100 µM (inactive)
[9]
  GI50: > 100 µM (inactive)
[10]
  GI50: > 100 µM (inactive)
[53]
  GI50: > 100 µM (inactive)
[54]
  GI50: > 100 µM (inactive)
[11]
  GI50: > 100 µM
[12]
  GI50: > 100 µM (inactive)
[13]
  GI50: > 100 µM (inactive)
[14]
  GI50: > 100 µM (inactive)
[15]
  GI50: > 100 µM (inactive)
[16]
  GI50: > 100 µM (inactive)
[17]
  GI50: > 100 µM (inactive)
[18]
  GI50: > 100 µM (inactive)
[19]
  GI50: > 100 µM (inactive)
[20]
  GI50: > 100 µM (inactive)
[55]
  GI50: 0.977 µM (active)
[21]
  GI50: 43.5 µM (inactive)
[22]
  GI50: > 100 µM (inactive)
[24]
  GI50: 16.2 µM (inactive)
[25]
  GI50: > 100 µM (inactive)
[26]
  GI50: 50.9 µM (inactive)
[27]
  GI50: > 100 µM (inactive)
[28]
  GI50: > 100 µM (inactive)
[30]
  GI50: 58.1 µM (inactive)
[56]
  GI50: > 100 µM (inactive)
[32]
  GI50: > 100 µM (inactive)
[33]
  GI50: > 100 µM (inactive)
[34]
  GI50: > 100 µM (inactive)
[35]
  GI50: > 100 µM (inactive)
[36]
  GI50: 72.9 µM (inactive)
[37]
  GI50: > 100 µM (inactive)
[38]
  GI50: > 100 µM (inactive)
[39]
  GI50: > 100 µM (inactive)
[40]
  GI50: > 100 µM (inactive)
[41]
  GI50: > 100 µM (inactive)
[42]
  GI50: > 100 µM (inactive)
[43]
  GI50: > 100 µM (inactive)
[44]
  GI50: > 100 µM (inactive)
[45]
  GI50: > 100 µM (inactive)
[46]
  GI50: 6.46 µM (inactive)
[47]
  GI50: > 100 µM (inactive)
[48]
  GI50: > 100 µM (inactive)
[49]
  GI50: > 100 µM (inactive)
[50]
  GI50: > 100 µM (inactive)
[51]
  GI50: 9.14 µM (inactive)
[52]
  GI50: > 100 µM (inactive)

## O=C(CCNC12CC3CC(CC(C3)C1)C2)c1ccccc1
[1]
  GI50: 36.8 µM (inactive)
[2]
  GI50: 13.3 µM (inactive)
[3]
  GI50: > 10 µM (inactive)
[4]
  GI50: 17.3 µM (inactive)
[5]
  GI50: 20.6 µM (inactive)
[6]
  GI50: 16 µM (inactive)
[7]
  GI50: 19.6 µM (inactive)
[8]
  GI50: 24.6 µM (inactive)
[10]
  GI50: 30.1 µM (inactive)
[54]
  GI50: 20.4 µM (inactive)
[11]
  GI50: 16.5 µM
[12]
  GI50: 21.6 µM (inactive)
[13]
  GI50: 17.4 µM (inactive)
[14]
  GI50: 23.6 µM (inactive)
[15]
  GI50: 20.1 µM (inactive)
[16]
  GI50: 16.6 µM (inactive)
[17]
  GI50: 19.6 µM (inactive)
[18]
  GI50: 20.9 µM (inactive)
[19]
  GI50: 13.4 µM (inactive)
[20]
  GI50: 47 µM (inactive)
[55]
  GI50: 13.1 µM (inactive)
[21]
  GI50: 19.3 µM (inactive)
[22]
  GI50: 18.2 µM (inactive)
[23]
  GI50: 21.6 µM (inactive)
[24]
  GI50: 15.3 µM (inactive)
[25]
  GI50: 21.2 µM (inactive)
[26]
  GI50: 17.3 µM (inactive)
[27]
  GI50: 28.7 µM (inactive)
[29]
  GI50: 11.6 µM (inactive)
[30]
  GI50: 20.1 µM (inactive)
[31]
  GI50: 8.13 µM (inactive)
[56]
  GI50: 33 µM (inactive)
[32]
  GI50: 15.1 µM (inactive)
[33]
  GI50: 18.2 µM (inactive)
[34]
  GI50: 15 µM (inactive)
[35]
  GI50: 19.6 µM (inactive)
[57]
  GI50: 13.4 µM (inactive)
[36]
  GI50: 15.9 µM (inactive)
[37]
  GI50: 22.3 µM (inactive)
[39]
  GI50: 20 µM (inactive)
[40]
  GI50: 2.79 µM (inactive)
[41]
  GI50: > 10 µM (inactive)
[42]
  GI50: 26.5 µM (inactive)
[43]
  GI50: 33.1 µM (inactive)
[44]
  GI50: 16.3 µM (inactive)
[45]
  GI50: 25.9 µM (inactive)
[46]
  GI50: 14.3 µM (inactive)
[47]
  GI50: 24.8 µM (inactive)
[48]
  GI50: 17.8 µM (inactive)
[49]
  GI50: 15.2 µM (inactive)
[50]
  GI50: 25.1 µM (inactive)
[51]
  GI50: 17.9 µM (inactive)
[52]
  GI50: 21.2 µM (inactive)
[58]
  GI50: 10.3 µM (inactive)
